Reference: US8815577B2, “Assay electrode having immobilized lipid/protein layers, methods of making the same and methods of using the same for luminescence test measurements” (Meso Scale Technologies, LLC, priority 2001, dated 2014)

Columns and labels:
EGFR in A431 cells [1] = assay: Measuring of EGFR activation dependent phosphorylation (prophetic); type: cell-based; conditions: membrane fragments of EGF-activated A431 cells
From the text: Activation of EGFR leads to its autophosphorylation. The cells are lysed as described in Example 1.2 to form cell membrane fragments (and, preferably, purified by centrifugation). The cell membrane fragments are immobilized on carbon electrodes integrated into the multi-well plates by passive adsorption or specific binding to a capture reagent previously immobilized on the electrode (e.g., wheat germ agglutinin, anti-EGFR, or another antibody specific for a membrane component, preferably, an epitope found on the cytoplasmic side) (as described in Example 1.3). The immobilized membrane fragments are treated with a buffered solution containing a STAG-labeled anti-phosphotyrosine antibody. In an alternate protocol, the membranes and antibody are premixed prior to addition of the membranes to the wells. A buffered tripropylamine solution is introduced to the well and ECL is induced and measured as described in Example 1.4.

EGFR in A431 cells [2] = assay: Measurement of EGFR activation dependent binding events (prophetic); type: cell-based; conditions: membrane fragments of EGF-activated A431 cells
From the text: Activation of the EGFR leads to autophosphorylation of EGFR followed by the sequential binding of shc to EGFR and grb-2 to shc. The cells are lysed as described in Example 1.2 to form cell membrane fragments (and, preferably, purified by centrifugation). The cell membrane fragments are immobilized on carbon electrodes integrated into the multi-well plates by passive adsorption (as described in Example 1.3) or specific binding to a capture reagent immobilized on the electrode (e.g., wheat germ agglutinin, anti-EGFR, or another antibody specific for a membrane component, preferably, an epitope found on the cytoplasmic side). The immobilized membrane fragments are treated with a buffered solution containing an STAG-labeled antibody directed against shc or grb-1. In an alternate protocol, the membranes and antibody are premixed prior to addition of the membranes to the wells. A buffered tripropylamine solution is introduced into the well and ECL is induced and measured as described in Example 1.4.

[3] = test system: tyrosine phosphatase activity / phosphotyrosine content in U2-OS cells; assay: Cellular phosphotyrosine content in fixed U2-OS cells grown on carbon electrode, ECL detection (tyrosine phosphatase inhibition); type: cell-based; conditions: 1 mM, 30 minute incubation
Description: U2-OS cells were grown in non-plasma treated Multi-Array plates using the growth conditions recommended by the American Type Culture Collection (ATCC reference number HTB-96). The plates were partially sterilized beforehand by illumination with a high energy UV light (Strata Linker Model 2400, Stratagene) set to deliver 9999 joules to the plate surface over the course of 5 minutes. Approximately 10,000 trypsinized cells were dispensed to each well of the 96 well plate in 100 μl of tissue culture media (see ATCC reference above) and incubated overnight in a cell culture incubator (at 37° C. in a humidified atmosphere containing 5% CO2) to promote attachment of the cells to the electrode surface.
Per-Vanadate, a tyrosine phosphatase inhibitor was added to a some of the wells to give a final concentration of 1 mM in those wells. […]
Phosphotyrosine containing proteins were detected by incubating the wells for one hour in 90 μl of PBS/FBS containing an anti-phosphotyrosine monoclonal antibody (100 ng/mL) and an anti-mouse secondary antibody (200 ng/mL) that was labeled with ruthenium-tris-bipyridine (ORI-TAG NHS Ester, IGEN International). […] ECL Assay Buffer was added (150 μl of OriGlo Plus, IGEN International) and the plate was analyzed using a Sector HTS instrument.

[4] = target: melanocortin 5 receptor (MC5) (Homo sapiens, UniProt P33032); conditions: at the higher concentrations
Sequence of melanocortin 5 receptor (MC5) (P33032 whole entry): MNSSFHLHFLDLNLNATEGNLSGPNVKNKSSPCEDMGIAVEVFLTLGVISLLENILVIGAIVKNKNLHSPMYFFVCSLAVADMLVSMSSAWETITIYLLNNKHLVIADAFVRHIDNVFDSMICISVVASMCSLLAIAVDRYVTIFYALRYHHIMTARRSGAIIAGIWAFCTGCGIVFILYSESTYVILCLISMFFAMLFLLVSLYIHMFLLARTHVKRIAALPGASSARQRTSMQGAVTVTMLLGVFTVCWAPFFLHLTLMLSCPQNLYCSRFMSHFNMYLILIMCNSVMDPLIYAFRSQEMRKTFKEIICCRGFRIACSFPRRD
Description: The membrane fragments came from HEK-293 cells that were transformed to express MC5.
Pure PHA-E was passively adsorbed onto the working electrode of plasma-treated Multi-Array 384-well plates by dispensing PHA-E (10 pmol per well) in PBS (5 μL per well) into the wells of the plate. Plates were sealed and incubated for 1 h at ambient temperature. Following the incubation, 3% BSA blocking solution was added (65 μL per well) and the plates were sealed and incubated for 1 h at room temperature. Plates were washed 4 times with PBS and dried. MC5 containing membrane fragments were immobilized in the plates using the procedure described in Example 2.3.1 except that in this case the immobilization occurred via lectin-sugar interactions.
In this Example, MC5 containing membrane fragments were immobilized on the electrode surface of plasma treated Multi-Array 96 well plates (Meso Scale Discovery) by capture on a passively adsorbed layer of pure Pokeweed Mitogen according to an immobilization protocol analogous to that described in the Example 2.3.2. […] The fluid in the wells was then removed and 150 μL of a buffered detergent-free solution of tripropylamine (MSD Assay Buffer T, surfactant free, Meso Scale Discovery) was added. ECL from the wells was measured using a Sector HTS plate reader.

EGF: epidermal growth factor, ligand of EGFR (NSDSECPLSHDGYCLHDGVCMYIEALDKYACNCVVGYIGERCQYRDLKWWELR; not fully specified; Epidermal growth factor; UniProt P01133 971-1023, looked up)
ECL signal (STAG-labeled anti-phosphotyrosine antibody) versus control A431 cells not exposed to EGF (EGFR in A431 cells [1]): greater | ECL signal (STAG-labeled antibody against shc or grb-1) versus control A431 cells not exposed to EGF (EGFR in A431 cells [2]): greater

Per-vanadate
ECL signal after subtraction of background, relative to untreated cells [3]: more than three times higher | Average ECL signal (anti-phosphotyrosine antibody) ([3]; n=4): 7690.0

[Nle4,D-Phe7]-α-melanocyte-stimulating hormone [NDP-α-MSH]
inhibition of the binding of NDP-α-MSH-TAG to MC5 [4]: almost complete
